# Measurements: patent US12478617B2, “Lipidated peptide inhibitors of interleukin-23 receptor” (JANSSEN BIOTECH, INC., priority 2021, dated 2025)
# Starred links: 1 amine or outer side, 2 acyl side, 3 side chain; linkers in the order of their positions; H or OH if unused. Positions of bridges follow the written chain, without caps; N, C: chain ends. Non-standard residues stand in square brackets, D forms with d. Residues, ends and D or L forms follow the SMILES beside them. Groups on a side chain read outwards from the residue. *: point of attachment. X4 = O=C(O)CCCCCCCCCCCCCCC(=O)NC[C@H](NC(=O)CCCCCCCCCCCCCCC(=O)O)C(=O)*; Trp(7-Me) = Cc1cccc2c(C[C@H](N)C(=O)O)c[nH]c12; C18 diacid = O=C(O)CCCCCCCCCCCCCCCCC(=O)*; C16 diacid = O=C(O)CCCCCCCCCCCCCCC(=O)*; γGlu = O=C(O)[C@H](CCC(=O)[*:2])N[*:1]; 2Nal = N[C@@H](Cc1ccc2ccccc2c1)C(=O)O; AEF = NCCOc1ccc(C[C@H](N)C(=O)O)cc1; PEG6 = NCCOCCOCCOCCOCCOCCOCCC(=O)O; Palmitoyl = CCCCCCCCCCCCCCCC(=O)*; 3Pal = N[C@@H](Cc1cccnc1)C(=O)O; Pen = CC(C)(S)[C@H](N)C(=O)O; Thp = NC1(C(=O)O)CCOCC1; AEEA = NCCOCCOCC(=O)O; Sar = CNCC(=O)O
# Biological target: T1, IL-23R (Homo sapiens, UniProt Q5VWK5)
# T1 construct: HEK293 cells containing IL-23R, IL-12RP31 and a firefly luciferase reporter gene driven by a STAT-inducible promoter (Promega); host or cells: HEK293
# T1 sequence (Q5VWK5 24-629): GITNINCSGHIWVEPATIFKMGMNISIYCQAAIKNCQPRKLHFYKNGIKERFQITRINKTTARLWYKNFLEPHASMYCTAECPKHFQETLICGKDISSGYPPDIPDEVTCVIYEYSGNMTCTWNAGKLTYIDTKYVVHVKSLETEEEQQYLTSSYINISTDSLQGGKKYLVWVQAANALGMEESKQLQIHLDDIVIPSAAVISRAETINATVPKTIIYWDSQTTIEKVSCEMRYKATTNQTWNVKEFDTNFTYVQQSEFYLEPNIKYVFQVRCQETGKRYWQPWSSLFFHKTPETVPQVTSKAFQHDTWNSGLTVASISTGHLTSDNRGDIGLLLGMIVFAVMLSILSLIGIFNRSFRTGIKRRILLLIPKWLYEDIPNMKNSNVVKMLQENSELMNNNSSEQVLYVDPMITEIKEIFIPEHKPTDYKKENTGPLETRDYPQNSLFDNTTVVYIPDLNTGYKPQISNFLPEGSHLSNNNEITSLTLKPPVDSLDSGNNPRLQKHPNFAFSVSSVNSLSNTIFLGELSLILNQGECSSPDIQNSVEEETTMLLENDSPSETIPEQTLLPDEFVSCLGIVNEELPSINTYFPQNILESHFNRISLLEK
# Experiment: IL23R Reporter Assay
# Format: cell-based
# Excerpt: IL-23 binding to IL-23 receptors results in the activation of the Signal Transducer and Activator of Transcription 3 (STAT3) by phosphorylation and downstream signaling events. Accordingly. the ability of the inhibitors described herein to block IL-23 action can be assessed by monitoring the status of STAT3 activation in response to IL-23. This may be accomplished in reporter cell assays or in intact cells such as peripheral blood mononuclear cells (PBMCs).
# Compounds were serially diluted in 100% (v/v) DMSO) and plated using an Echo acoustic dispenser (Labcyte) into 1536-well non-treated black assay plates (Corning #9146). […] After 5 h at 37° C., 5% CO2, 95% relative humidity, cells were placed at 20° C. and treated with BioGlo reagent (Promega) according to the Manufacturer's instructions. Luminescence was measured on a Pherastar FSX (BMG LabTech).
row,IC50 [nM],SMILES
1,0.049,"CC(=O)NCCCC[C@@H]1NC(=O)[C@H](Cc2c[nH]c3c(C)cccc23)NC(=O)[C@H]([C@@H](C)O)NC(=O)[C@H](CC(N)=O)NC(=O)[C@@H](NC(C)=O)C(C)(C)SSC(C)(C)[C@@H](C(=O)N[C@@H](Cc2ccc(OCCN)cc2)C(=O)N[C@@H](Cc2ccc3ccccc3c2)C(=O)NC2(C(=O)N[C@@H](CCCCNC(=O)CCOCCOCCOCCOCCOCCOCCNC(=O)CCOCCOCCOCCOCCOCCOCCNC(=O)CC[C@H](NC(=O)CCCCCCCCCCCCCCCCC(=O)O)C(=O)O)C(=O)N[C@@H](CC(N)=O)C(=O)N[C@@H](Cc3cccnc3)C(=O)N(C)CC(N)=O)CCOCC2)NC1=O [Example 43, MeCO-Pen*-N-T-7MeW-K(Ac)-Pen*-AEF-2Nal-THP-K(PEG6PEG6gEC18OH)-N-3Pya-Sar-CONH2] (Ac-[Pen]NT[Trp(7-Me)]K(Ac)[Pen][AEF][2Nal][Thp]K([PEG6-PEG6-γGlu-C18 diacid])N[3Pal][Sar]-NH2; disulfide 1-6)"
2,0.052,"CCCCCCCCCCCCCCCC(=O)N[C@@H](CCC(=O)NCCOCCOCC(=O)NCCOCCOCC(=O)NCCCC[C@@H]1NC(=O)[C@@H](NC(C)=O)C(C)(C)SSC(C)(C)[C@@H](C(=O)N[C@@H](Cc2ccc(OCCN)cc2)C(=O)N[C@@H](Cc2ccc3ccccc3c2)C(=O)NC2(C(=O)N[C@@H](CCCCNC(C)=O)C(=O)N[C@@H](CC(N)=O)C(=O)N[C@@H](Cc3cccnc3)C(=O)N(C)CC(N)=O)CCOCC2)NC(=O)[C@H](CCCCNC(C)=O)NC(=O)[C@H](Cc2c[nH]c3c(C)cccc23)NC(=O)[C@H]([C@@H](C)O)NC1=O)C(=O)O [Example 83, MeCO-Pen*-K(PEG2PEG2gEC16)-T-7MeW-K(Ac)-Pen*-AEF-2Nal-THP-K(Ac)-N-3Pya-Sar-CONH2] (Ac-[Pen]K([AEEA-AEEA-γGlu-Palmitoyl])T[Trp(7-Me)]K(Ac)[Pen][AEF][2Nal][Thp]K(Ac)N[3Pal][Sar]-NH2; disulfide 1-6)"
3,0.19,"CC(=O)NCCCC[C@@H]1NC(=O)[C@H](Cc2c[nH]c3c(C)cccc23)NC(=O)[C@H]([C@@H](C)O)NC(=O)[C@H](CC(N)=O)NC(=O)[C@@H](NC(=O)[C@@H](CCCNC(=N)N)NC(=O)COCCOCCNC(=O)COCCOCCNC(=O)CC[C@H](NC(=O)CCCCCCCCCCCCCCC(=O)O)C(=O)O)C(C)(C)SSC(C)(C)[C@@H](C(=O)N[C@@H](Cc2ccc(OCCN)cc2)C(=O)N[C@@H](Cc2ccc3ccccc3c2)C(=O)NC2(C(=O)N[C@@H](CCCCNC(=O)COCCOCCNC(=O)COCCOCCNC(=O)CC[C@H](NC(=O)CCCCCCCCCCCCCCC(=O)O)C(=O)O)C(=O)N[C@@H](CC(N)=O)C(=O)N[C@@H](Cc3cccnc3)C(=O)N(C)CC(N)=O)CCOCC2)NC1=O [Example 37, HOC16gEPEG2PEG2-r-Pen*-N-T-7MeW-K(Ac)-Pen*-AEF-2Nal-THP-K(PEG2PEG2gEC16OH)-N-3Pya-Sar-CONH2] ({C16 diacid-γGlu-AEEA-AEEA}-[dR][Pen]NT[Trp(7-Me)]K(Ac)[Pen][AEF][2Nal][Thp]K([AEEA-AEEA-γGlu-C16 diacid])N[3Pal][Sar]-NH2; disulfide 2-7)"
4,0.15,"CC(=O)NCCCC[C@@H]1NC(=O)[C@H](Cc2c[nH]c3c(C)cccc23)NC(=O)[C@H]([C@@H](C)O)NC(=O)[C@H](CC(N)=O)NC(=O)[C@@H](NC(C)=O)C(C)(C)SSC(C)(C)[C@@H](C(=O)N[C@@H](Cc2ccc(OCCN)cc2)C(=O)N[C@@H](Cc2ccc3ccccc3c2)C(=O)NC2(C(=O)N[C@@H](CCCCNC(=O)[C@H](CNC(=O)CCCCCCCCCCCCCCC(=O)O)NC(=O)CCCCCCCCCCCCCCC(=O)O)C(=O)N[C@@H](CC(N)=O)C(=O)N[C@@H](Cc3cccnc3)C(=O)N(C)CC(N)=O)CCOCC2)NC1=O [Example 114, MeCO-Pen*-N-T-7MeW-K(Ac)-Pen*-AEF-2Nal-THP-K(DAP-(C16OH)2)-N-3Pya-Sar-CONH2] (Ac-[Pen]NT[Trp(7-Me)]K(Ac)[Pen][AEF][2Nal][Thp]K(X4)N[3Pal][Sar]-NH2; disulfide 1-6)"
